{
  "source": "patent US6106866A",
  "about": "“In vivo agents comprising cationic drugs, peptides and metal chelators with acidic saccharides and glycosaminoglycans, giving improved site-selective localization, uptake mechanism, sensitivity and kinetic-spatial profiles, including tumor sites” (Access Pharmaceuticals, Inc., priority 1995, dated 2000)",
  "key": {"[1]": {"conditions": "mouse, in vivo; cited from earlier work"}, "parent MCF-7 cell line": {"tested_on": "parent MCF-7 cell line", "assay": "Clonigenic tumor-cell killing assay, parent MCF-7 (14C-glucose, Bactec, day 9)", "format": "cell-based", "conditions": "Homo sapiens, MCF7, 216 h", "from_the_text": "(§1) The paired-ion doxorubicin:dermatan sulfate (essentially purified dermatan sulfate, 435 Type, Opocrin) of Example 28 (=doxorubicin:DS), is compared to standard doxorubicin liquid (Adria Laboratories), for tumor-cell killing potency in a clonigenic assay, using the following human breast cancer cell lines: parent MCF-7 cell line and adriamycin/doxorubicin-resistant MCF-7 cell line. For each group, five serial dilutions of each formulation were mixed on day 0, with an appropriate number of cells, growth medium and ^14 C-labelled glucose, the mixture then injected into serum vials pre-gassed with 5% CO2, and the vials incubated at 37° C. (with cells continuously exposed to drug). […] Results are shown in Table 5 for the day of peak counts (day 9): […]"}, "AT-1 prostate carcinomas": {"tested_on": "AT-1 prostate carcinomas", "assay": "Acute in vivo tumor localization and tumor-cell internalization by fluorescence microscopy", "design": "species or system Copenhagen rats", "description": "FIG. 21A. Frozen 8-micron thick section of prostate adenocarcinoma (outer 2/3 of tumor of ca. 4 cm diameter), excised from its host rat (Copenhagen strain, syngeneic) 3 hours after intravenous injection of 5 mg/Kg doxorubicin:DS (doxorubicin in association with essentially purified dermatan sulfate, 435 Type, Opocrin) at a weight ratio of 60:40 (doxorubicin to dermatan sulfate), and fluorescence microscopy performed using a rhodamine-type filter to elicit direct fluorescence of the doxorubicin drug substance (see also Example 29). […] This is indicative of high tumor-cell internalization of the doxorubicin drug substance.\nThe paired-ion doxorubicin:dermatan sulfate (essentially purified dermatan sulfate, 435 Type, Opocrin) of Example 28 (=doxorubicin:DS) and standard doxorubicin liquid (Adria Laboratories) are injected at 5 mg/kg of doxorubicin i.v., into Copenhagen rats with AT-1 prostate carcinomas grown in a skin pouch (to mimic growth at deep organ sites). The rats are sacrificed at 3 hours after injection, the tumors and major organs removed, the cut tumors & organ pieces placed in OCT polymer and frozen at […], and cryostat sections cut at 8 um and coverslipped. Fluorescence microscopy is performed by exciting the sections using a rhodamine-type bandpass filter (at ca. 485 nm--in order to selectively excite doxorubicin) and assessing direct doxorubicin fluorescence (at an emission wavelength greater than 530 nm) to determine the following: […]"}, "[2]": {"assay": "Acute in vivo toxicity of doxorubicin:dermatan sulfate vs standard doxorubicin (day of death)", "design": "species or system male Balb/c mice", "conditions": "22.5 mg/Kg i.v.", "from_the_text": "The days of death are: doxorubicin:DS: modal day=6, mean=5.5±0.9 SE; standard doxorubicin: modal day=day 5, mean=4.8±0.5SE."}, "[3]": {"tested_on": "adriamycin/doxorubicin-resistant MCF-7 cell line", "assay": "Clonigenic tumor-cell killing assay, doxorubicin-resistant MCF-7 (14C-glucose, Bactec, day 9)", "format": "cell-based, human", "from_the_text": "as §1"}},
  "note": "“Also recorded” adds a separate entry of the source.",
  "data": [
    {"smiles": "COc1cccc2c1C(=O)c1c(O)c3c(c(O)c1C2=O)C[C@@](O)(C(=O)CO)C[C@@H]3O[C@H]1C[C@H](N)[C@H](O)[C@H](C)O1", "note": "[Standard doxorubicin]", "values": [
      {"measurement": "reported LD90 in mice", "setting": "[1]", "value": 22.5, "unit": "mg/kg"},
      {"measurement": "IC50", "setting": "parent MCF-7 cell line", "value": 20, "unit": "nM"},
      {"measurement": "IC90", "setting": "parent MCF-7 cell line", "value": 60, "unit": "nM"},
      {"measurement": "direct drug fluorescence in tumor cells", "setting": "AT-1 prostate carcinomas; 5 mg/Kg i.v., 3 hours", "value": "markedly lower fluorescence"},
      {"measurement": "fluorescence of endothelium / microvessels", "setting": "AT-1 prostate carcinomas; 5 mg/Kg i.v., 3 hours", "value": "general lack of fluorescence in and around the large tumor microvessel; also recorded: general lack of fluorescence in and around tumor microvessel (image center) and in tumor-cell nuclei"},
      {"measurement": "fluorescence of tumor-cell nuclei", "setting": "AT-1 prostate carcinomas; 5 mg/Kg i.v., 3 hours", "value": "no identifiable fluorescence in the tumor-cell nuclei"},
      {"measurement": "Fluorescence near capillaries (scale of 0 to 4+)", "setting": "AT-1 prostate carcinomas; 2/3 of regions", "value": 0},
      {"measurement": "Fluorescence away from capillaries (scale of 0 to 4+)", "setting": "AT-1 prostate carcinomas; Adriamycin PFS: most regions, doxorubicin:DS: ca. 8/10 of regions", "value": 0},
      {"measurement": "Endothelial fluorescence (scale of 0 to 4+)", "setting": "AT-1 prostate carcinomas; rat, in vivo", "value": 0},
      {"measurement": "Endothelial nuclear fluorescence (scale of 0 to 4+)", "setting": "AT-1 prostate carcinomas; rat, in vivo", "value": 0},
      {"measurement": "modal day of death", "setting": "[2]", "value": 5, "unit": "days"},
      {"measurement": "mean day of death", "setting": "[2]; ± SE", "value": "4.8 ± 0.5", "unit": "days"},
      {"measurement": "ability to overcome resistance", "setting": "[3]", "value": "unable to do so"},
      {"measurement": "IC50", "setting": "[3]; Homo sapiens, MCF7, 216 h, day 9", "value": 22300, "unit": "nM"},
      {"measurement": "IC90", "setting": "[3]; day 9", "value": "not achieved"}
    ]}
  ]
}
